These results are taken from EPA's ToxValDB 9.5 (doi:10.2903/j.efsa.2010.1707).

Converted amounts (≈) assume the structure as drawn.

One series has as its system Apis mellifera. As to conditions: acute; duration: 48 hours; oral; unspecified; mortality.
The next series deals with Bibionidae. Conditions: chronic/long-term; duration: 28 days.
The test system of a further series is Canidae. Conditions: chronic; duration: 1 years; oral; Dog Other; clinical chemistry.
For a further series, the system named is Cyprinodon variegatus. As to conditions: acute; duration: 96 hours; mortality.
The test system of a further series is Daphnia magna. As to conditions: chronic/long-term; duration: 21 days; growth.
In another series the test system is Folsomia candida. Conditions: chronic/long-term; duration: 28 days.
The subject of another series is Oncorhynchus mykiss. Conditions: acute; duration: 96 hours; mortality.
The next series has as its system Oryctolagus sp. Conditions: developmental; development.
For another series, the system named is Pimephales promelas. Conditions: chronic/long-term; duration: 34 days; other.
The next series has as its system Rattus norvegicus. Conditions: oral.
Another series concerns Aphidius rhopalosiphi. Put plainly: LR50; higher = less toxic. Conditions: not reported; mortality.
A further series relates to Typhlodromus pyri. Description: LR50; higher = less toxic. Conditions: not reported; mortality.

`CCCN(CCC)c1c([N+](=O)[O-])cc(S(N)(=O)=O)cc1[N+](=O)[O-]` [Oryzalin]: the values for the NOEL in the series with Anas platyrhynchos (reproductive) and in the series on Colinus virginianus (reproduction developmental) were 41 mg/kg-day and 28 mg/kg-day, respectively. The LD50 is over 1350 mg/kg-day in the series with Anas platyrhynchos (short-term, oral, feed, mortality); 32 µg/piece with Apis mellifera; over 691 mg/kg-day in the series with Colinus virginianus (acute, oral, diet, mortality); over 5000 mg/kg-day in the series on Rattus norvegicus (acute, mortality). Further, the NOEC came to 1 mg/L in the series with Bibionidae; 0.36 mg/L in the series with Daphnia magna; 34.3 mg/kg in the series with Folsomia candida; 0.22 mg/L in the series with Pimephales promelas; 34.3 mg/kg with Tagia sp. (chronic/long-term, duration: 56 days). For the same compound, the NOAEL in the series with Canidae is 5 mg/kg-day; in the series with Oryctolagus sp., 25 mg/kg-day; in the series with Rattus norvegicus (subchronic, duration: 90 days, hematological), 5 mg/kg-day. Moreover, the LC50 in the series on Cyprinodon variegatus is over 3.04 µg/mL; in the series with Oncorhynchus mykiss, 2.86 µg/mL (≈ 8.26 µM); in the series with Tagia sp. (acute, duration: 14 days, mortality) it was over 103 mg/kg. The figures for the LR50 in the series with Aphidius rhopalosiphi and in the series on Typhlodromus pyri were over 3850 g/ha and under 3850 g/ha, respectively.
